Measured values taken from PubChem BioAssay (NCI).
Values joined by “and” are separate entries in the source; they are usually repeats but may differ in a detail not shown here. Identical values can stand only once.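 Method: 48-hour compound exposure of cells in 96-well plates, five concentrations, linear interpolation of endpoints. GI50 = concentration required for 50% inhibition of growth. At the TGI there is no net growth.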

Tests used:
Experiment in all cases: NCI tumour cell line growth inhibition, 48 h
HOP-62 NSCLC = test system: HOP-62 NSCLC
ACHN renal = test system: ACHN renal
RXF 393 renal = test system: RXF 393 renal
HCT-15 colon = test system: HCT-15 colon
MALME-3M melanoma = test system: MALME-3M melanoma
SF-295 CNS = test system: SF-295 CNS
SF-539 CNS = test system: SF-539 CNS
M14 melanoma = test system: M14 melanoma
EKVX NSCLC = test system: EKVX NSCLC
SN12C renal = test system: SN12C renal

SMILES	GI50 (HOP-62 NSCLC)	TGI (HOP-62 NSCLC)	GI50 (ACHN renal)	TGI (ACHN renal)	GI50 (RXF 393 renal)	TGI (RXF 393 renal)	TGI (HCT-15 colon)	GI50 (MALME-3M melanoma) [µM]	TGI (MALME-3M melanoma) [µM]	GI50 (SF-295 CNS)	TGI (SF-295 CNS)	GI50 (SF-539 CNS) [µM]	TGI (SF-539 CNS) [µM]	GI50 (M14 melanoma) [µM]	TGI (M14 melanoma) [µM]	GI50 (EKVX NSCLC)	TGI (EKVX NSCLC)	GI50 (SN12C renal)	TGI (SN12C renal)	GI50 (HCT-15 colon)
COc1cc(C(C)c2cc3c(cc2OCCOCCOc2cc4c(cc2C(C)c2cc(OC)c(OC)c(OC)c2)OCO4)OCO3)cc(OC)c1OC (stereo unspecified)	> 100 µM	> 100 µM	> 100 µM	> 100 µM	> 100 µM	> 100 µM	> 10 µM	> 100	> 100	> 10 µM	> 100 µM	> 100	> 100	> 100	> 100	> 100 µM	> 100 µM	> 100 µM	> 100 µM	
C=C(C)[C@@H]1CC[C@]2(C)[C@H](CC=C3[C@@H]4CC(C)(C)CC[C@]4(C(=O)OC)CC[C@]32C)[C@@]1(C)CC/C(N)=N/O	4.44 µM	20.6 µM	2.05 µM	5.81 µM	1.8 µM	3.67 µM	5.6 µM	1.69	3.33	1.79 µM	4.01 µM	1.8	3.95	1.78	3.86	2.11 µM	6.8 µM	1.66 µM	3.2 µM	2.05 µM
CCCCCCCCOC(=O)c1cc(O)c(O)c(O)c1	4.77 µM	20 µM	1.6 µM	13.8 µM	5.45 µM	22 µM	18.3 µM	1.74	9.25	2.23 µM	8.47 µM	2.52	18.2	2.15	9.19	4.65 µM	22.4 µM	3.21 µM	31.7 µM	1.57 µM
NC(N)=NS(=O)(=O)c1ccc(NC(=O)c2ccc(Cl)c3c(Nc4ccc(S(=O)(=O)N=C(N)N)cc4)c4ccccc4nc23)cc1		> 100 µM		> 100 µM		> 100 µM	> 100 µM		> 100		> 100 µM		> 100		> 100		> 100 µM		> 100 µM	
CCOc1ccc2c(-c3ccnc(Nc4cccc(C(F)(F)F)c4)n3)cnn2n1	> 21 µM	> 25 µM	16.3 µM	> 25 µM	14.2 µM	> 25 µM	> 25 µM	> 25	> 25	> 25 µM	> 25 µM	4.92	9.63	> 25	> 25	> 17.9 µM	> 25 µM	15.1 µM	> 25 µM	> 23.8 µM
CC(=O)N1C(=O)C(=O)c2cc(Cl)ccc21				> 100 µM		> 100 µM	> 100 µM		> 100		> 100 µM		> 100		> 100		> 100 µM		> 100 µM	
COC(=O)c1c(C(=O)OC)c(C(=O)OC)c(C(=O)OC)c1C(=O)OC		> 100 µM		> 100 µM		> 100 µM	> 100 µM		> 100		> 100 µM		> 100		> 100		> 100 µM		> 100 µM	
O=C1c2ccccc2C(=O)c2c1c(NCCNCCO)c1cc[nH]c1c2NCCNCCO	2.6 µM	> 22.2 µM	9.96 µM	> 100 µM	2.59 µM	13.2 µM	> 100 µM	1.8	5.16	4.37 µM	43 µM	1.25	14.5	7.27	> 55.1	4.65 µM	25.5 µM	0.354 µM	2.67 µM	> 70.9 µM
COc1cc(C)c(N(C)C(=O)CN(C)C)cc1Nc1nc(Nc2cccc(F)c2C(N)=O)c2cc[nH]c2n1	> 25 µM	> 25 µM	> 25 µM	> 25 µM	20.5 µM	> 25 µM	> 25 µM	> 25	> 25	> 25 µM	> 25 µM	> 25	> 25	> 25	> 25	> 25 µM	> 25 µM	> 25 µM	> 25 µM	> 25 µM
COc1ccc(-c2ccc(=O)oc2-c2cc(OC)c(OC)c(OC)c2)cc1O	0.0199 µM	> 100 µM	0.135 µM	> 73.3 µM	< 0.01 µM	0.011 µM	> 20.5 µM		> 100	0.0157 µM	> 100 µM	< 0.0149	0.104	0.018	> 100	0.0807 µM	> 100 µM	0.0697 µM	> 100 µM	0.0138 µM
CP(=O)(CCSc1ccccc1)c1ccccc1 (stereo unspecified)		> 100 µM		> 100 µM		> 100 µM	> 100 µM		> 100		> 100 µM		> 100		> 100		> 100 µM		> 100 µM	
C=CC1(C)/C(=N\O)C(C)(CC)C(=O)N1O (stereo unspecified)		> 100 µM		> 100 µM		> 100 µM	> 100 µM		> 100		> 100 µM		> 100		> 100		> 100 µM		> 100 µM	
C=C(C)[C@@H]1CC[C@]2(c3ncc(C)o3)CC[C@]3(C)[C@H](CC[C@@H]4[C@@](C)(CCC#N)[C@H](C(=C)C)CC[C@]43C)[C@@H]12	6.99 µM	21.6 µM	4.65 µM	17.2 µM	2.14 µM	5.12 µM	17.1 µM	2.65	9.75	7.22 µM	21.2 µM	9.05	21.7	7.8	24.2	3.13 µM	12.6 µM	3.16 µM	12.1 µM	3.94 µM
O=c1c2cc(-c3ccccc3)sc2nc2sc(-c3ccccc3)nn12		> 100 µM				> 100 µM	> 100 µM		> 100		> 100 µM		> 100		> 100		> 100 µM		> 100 µM	
N#CC(C(=N/NC(N)=S)/C(=N\NC(N)=S)C(C#N)c1ccccc1)c1ccccc1 (stereo unspecified)		> 10 µM		> 10 µM		> 10 µM	> 10 µM		> 10		> 10 µM		> 10		> 10		> 10 µM		> 10 µM	
CN1CCN(c2ccc3nc(-c4ccc5nc(-c6ccc(C(F)(F)F)cc6)[nH]c5c4)[nH]c3c2)CC1	1.63 µM	3.42 µM	3.94 µM	17.7 µM	1.53 µM	3.12 µM	24.5 µM	1.08	2.44	2.44 µM	9.51 µM	1.62	3.09	1.36	2.89	2.06 µM	4.38 µM	1.9 µM	3.96 µM	7.48 µM

SMILES	GI50 (HOP-62 NSCLC)	TGI (HOP-62 NSCLC)	GI50 (ACHN renal)	TGI (ACHN renal)	GI50 (RXF 393 renal)	TGI (RXF 393 renal)	TGI (HCT-15 colon)	GI50 (MALME-3M melanoma) [µM]	TGI (MALME-3M melanoma) [µM]	GI50 (SF-295 CNS)	TGI (SF-295 CNS)	GI50 (SF-539 CNS) [µM]	TGI (SF-539 CNS) [µM]	GI50 (M14 melanoma) [µM]	TGI (M14 melanoma) [µM]	GI50 (EKVX NSCLC)	TGI (EKVX NSCLC)	GI50 (SN12C renal)	TGI (SN12C renal)	GI50 (HCT-15 colon)
CC[O+]=c1cccc2ssnc1-2		> 100 µM		> 100 µM		> 100 µM	> 100 µM		> 100		> 100 µM		> 100		> 100		> 100 µM		> 100 µM	
Cc1ccc2nc(NC(=O)CSC(=S)N3CCN(Cc4ccccc4)CC3)sc2c1	> 100 µM	> 100 µM	> 100 µM	> 100 µM	> 100 µM	> 100 µM	> 100 µM	> 100	> 100	> 100 µM	> 100 µM	> 100	> 100	> 100	> 100	> 100 µM	> 100 µM	> 100 µM	> 100 µM	> 100 µM
COc1cc2c3c(n(CCCn4cccn4)c(=O)c2cc1OC)-c1cc2c(cc1C3=O)OCO2	0.449 µM	11.1 µM	0.396 µM	5.61 µM	5.76 µM	27.7 µM	> 100 µM	9.4	> 96.7	0.581 µM	32 µM	0.56	5.08	0.461	5.07	8.79 µM	> 53.1 µM	0.463 µM	3.08 µM	14.7 µM
CCCCCn1ncc(-c2c(O)c(O)cc3c(O)c(-c4c(C)cc5c(-c6cnn(CCCCC)n6)c(O)c(O)cc5c4O)c(C)cc23)n1	0.14 µM	2.75 µM	0.128 µM	4.27 µM	0.112 µM	6.45 µM	5.01 µM	0.138	4.73	0.108 µM	4.6 µM	0.135	4.06	0.182	2.89	0.177 µM	4.61 µM	0.124 µM	5.75 µM	0.0976 µM
COc1cc([N+](=O)[O-])c(S(=O)(=O)O)cc1-n1nc(-c2ccccc2)n[n+]1-c1cc(S(=O)(=O)[O-])c([N+](=O)[O-])cc1OC		> 100 µM		> 100 µM		> 100 µM	> 100 µM		> 100		> 100 µM		> 100		> 100		> 100 µM		> 100 µM	
Nc1nc(N)c2ncn(Cc3c(Cl)cccc3Cl)c2n1		> 100 µM		> 100 µM		> 100 µM	> 100 µM		> 100		> 100 µM		> 100		> 100		> 100 µM		> 100 µM	
c1ccc(CN2CCC3(CC2)ONC2=NCCN23)cc1	> 100 µM	> 100 µM	49.7 µM	> 100 µM	88.1 µM	> 100 µM	> 100 µM	> 100	> 100	> 100 µM	> 100 µM	96.3	> 100	> 100	> 100	> 100 µM	> 100 µM	27.1 µM	82 µM	46.8 µM
COC(=O)/C=C\C1C(C(=O)OC)C2(C(=O)OC)CCC1(C(=O)OC)N2 (stereo unspecified)		34.1 µM		22.7 µM		19.7 µM	11.2 µM		15.8		44.8 µM		32		28.8		> 60.2 µM		29.9 µM	
C=CCCC12CCCC(=O)C1Sc1ccc3ccccc3c12 (stereo unspecified)		53.5 µM		92.3 µM		26.2 µM	37.5 µM		52.7		51.2 µM		28.5		31.1		64.2 µM		54.4 µM	
COc1ccc(S(=O)(=O)N2CCCCC2)cc1NC(=O)c1[nH]c(C)c2c1CCCCC2=O	0.904 µM	> 100 µM	2.34 µM	> 100 µM	0.818 µM	4.09 µM	> 100 µM	1.76	93.8	2.52 µM	> 100 µM	2.31	> 100	1.49	> 100	3.78 µM	> 100 µM	3.16 µM	> 100 µM	1.15 µM
CCCCCCCCCCCCCCCC[N+](C)(C)C	0.198 µM and 1.33 µM	0.54 µM and 3.07 µM	0.332 µM and 1.44 µM	1.61 µM and 4.03 µM	0.0963 µM and 0.235 µM	0.244 µM and 0.83 µM	1.85 µM and 10.1 µM	1.8	5.08	0.305 µM and 0.716 µM	1.36 µM and 2.38 µM	1.49	3.18	1.17	2.86	0.577 µM and 1.59 µM	3.17 µM and 4.28 µM	0.285 µM and 2.06 µM	1.07 µM and 4.56 µM	0.383 µM and 1.88 µM
O=C(CN1C(=O)c2ccccc2C1=O)OC1C=CCCC1 (stereo unspecified)		> 100 µM		> 100 µM		> 100 µM	> 100 µM		> 100				> 100		> 100		> 100 µM		> 100 µM	
NC(CCc1nc(-c2ccccc2)cs1)C(=O)O (stereo unspecified)				> 100 µM		> 100 µM	> 100 µM		> 100		> 100 µM		> 100		> 100		> 100 µM		> 100 µM	
CC(C)NCCCNC1=C(Cl)C(=O)c2ccccc2C1=O	13.8 µM	27.4 µM	12.6 µM	25.8 µM	14.5 µM	27.8 µM	3.96 µM	1.97	3.69			16.5	31.8	1.86	3.49	1.4 µM	2.83 µM	1.89 µM	3.93 µM	1.95 µM
Cc1ccc(S(=O)(=O)NC(C)C(=O)O)cc1 (stereo unspecified)				> 100 µM		> 100 µM	> 100 µM		> 100		> 100 µM		> 100		> 100		> 100 µM		> 100 µM	
